Source: PubChem BioAssay (NCI)
Values joined by “and” are separate entries in the source; they are usually repeats but may differ in a detail not shown here. Equal values may be shown once.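 In this assay, cells in 96-well plates receive the compound at five concentrations for 48 hours. Endpoints are linearly interpolated between the surrounding concentrations. GI50 is the concentration that inhibits growth by half. TGI: concentration producing complete growth inhibition.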

What was measured:
Experiment in all cases: NCI anticancer screen, dose series, 48 h; in the data active = GI50 below about 0.43 µM; inactive = the rest
786-0 renal = tested on: 786-0 renal
A498 renal = tested on: A498 renal
A549 NSCLC = tested on: A549 NSCLC
ACHN renal = tested on: ACHN renal
CAKI-1 renal = tested on: CAKI-1 renal
CCRF-CEM leukemia = tested on: CCRF-CEM leukemia
COLO 205 colon = tested on: COLO 205 colon
DLD-1 colon = tested on: DLD-1 colon
DMS 114 small cell lung = tested on: DMS 114 small cell lung
DMS 273 small cell lung = tested on: DMS 273 small cell lung
DU-145 prostate = tested on: DU-145 prostate
EKVX NSCLC = tested on: EKVX NSCLC
HCC-2998 colon = tested on: HCC-2998 colon
HCT-116 colon = tested on: HCT-116 colon
HCT-15 colon = tested on: HCT-15 colon
HL-60(TB) leukemia = tested on: HL-60(TB) leukemia
HOP-18 NSCLC = tested on: HOP-18 NSCLC
HOP-62 NSCLC = tested on: HOP-62 NSCLC
HOP-92 NSCLC = tested on: HOP-92 NSCLC
HT29 colon = tested on: HT29 colon
IGROV1 ovarian = tested on: IGROV1 ovarian
K-562 leukemia = tested on: K-562 leukemia
KM12 colon = tested on: KM12 colon
KM20L2 colon = tested on: KM20L2 colon
LOX IMVI melanoma = tested on: LOX IMVI melanoma
LXFL 529 NSCLC = tested on: LXFL 529 NSCLC
M14 melanoma = tested on: M14 melanoma
M19-MEL melanoma = tested on: M19-MEL melanoma
MALME-3M melanoma = tested on: MALME-3M melanoma
MOLT-4 leukemia = tested on: MOLT-4 leukemia
NCI-H226 lung = tested on: NCI-H226 lung
NCI-H23 lung = tested on: NCI-H23 lung
NCI-H460 lung = tested on: NCI-H460 lung
NCI-H522 lung = tested on: NCI-H522 lung
OVCAR-3 ovarian = tested on: OVCAR-3 ovarian
OVCAR-4 ovarian = tested on: OVCAR-4 ovarian
OVCAR-5 ovarian = tested on: OVCAR-5 ovarian
OVCAR-8 ovarian = tested on: OVCAR-8 ovarian
PC-3 prostate = tested on: PC-3 prostate
RPMI-8226 leukemia = tested on: RPMI-8226 leukemia
RXF 393 renal = tested on: RXF 393 renal
SF-268 CNS = tested on: SF-268 CNS
SF-295 CNS = tested on: SF-295 CNS
SF-539 CNS = tested on: SF-539 CNS
SK-MEL-2 melanoma = tested on: SK-MEL-2 melanoma
SK-MEL-28 melanoma = tested on: SK-MEL-28 melanoma
SK-MEL-5 melanoma = tested on: SK-MEL-5 melanoma
SK-OV-3 ovarian = tested on: SK-OV-3 ovarian
SN12C renal = tested on: SN12C renal
SNB-19 CNS = tested on: SNB-19 CNS
SNB-75 CNS = tested on: SNB-75 CNS
SNB-78 CNS = tested on: SNB-78 CNS
SR leukemia = tested on: SR leukemia
SW-620 colon = tested on: SW-620 colon
TK-10 renal = tested on: TK-10 renal
U251 CNS = tested on: U251 CNS
UACC-257 melanoma = tested on: UACC-257 melanoma
UACC-62 melanoma = tested on: UACC-62 melanoma
UO-31 renal = tested on: UO-31 renal
XF 498 CNS = tested on: XF 498 CNS

CCOC(=O)CCC(NC(=O)c1ccc(N=Cc2nc3cc(C(F)(F)F)ccc3nc2-c2ccccc2)cc1)C(=O)OCC (stereo not drawn)
23.2 µM and 38.2 µM: TGI (SK-OV-3 ovarian)
18.9 µM and > 100 µM: TGI (786-0 renal)
50 µM and 40.6 µM: TGI (HOP-62 NSCLC)
> 50 µM: TGI (PC-3 prostate)
21.6 µM and > 100 µM: TGI (NCI-H23 lung)
13 µM and 14.1 µM: TGI (SNB-75 CNS)
11.7 µM: TGI (XF 498 CNS)
27.4 µM and > 100 µM: TGI (OVCAR-8 ovarian)
31.8 µM and > 100 µM: TGI (SF-268 CNS) | TGI (SF-295 CNS)
50 µM and > 100 µM: TGI (A549 NSCLC) | TGI (ACHN renal) | TGI (CAKI-1 renal) | TGI (COLO 205 colon) | TGI (EKVX NSCLC) | TGI (HL-60(TB) leukemia) | TGI (IGROV1 ovarian) | TGI (KM12 colon) | TGI (LOX IMVI melanoma) | TGI (LXFL 529 NSCLC) | TGI (M14 melanoma) | TGI (NCI-H460 lung) | TGI (NCI-H522 lung) | TGI (OVCAR-3 ovarian) | TGI (OVCAR-4 ovarian) | TGI (SK-MEL-5 melanoma)
50 µM: TGI (DU-145 prostate)
22.7 µM and > 100 µM: TGI (MALME-3M melanoma)
32 µM and 98.8 µM: TGI (SNB-78 CNS)
19.4 µM and > 100 µM: TGI (HCT-116 colon)
29.5 µM and 58.2 µM: TGI (TK-10 renal)
40.7 µM and > 100 µM: TGI (UACC-62 melanoma)
inactive: GI50 (786-0 renal) 30.8 µM | GI50 (A549 NSCLC) > 100 µM | GI50 (ACHN renal) 46.3 µM | GI50 (CAKI-1 renal) > 100 µM | GI50 (CCRF-CEM leukemia) > 100 µM | GI50 (COLO 205 colon) > 100 µM | GI50 (DLD-1 colon) > 100 µM | GI50 (EKVX NSCLC) > 100 µM | GI50 (HCC-2998 colon) > 100 µM | GI50 (HCT-116 colon) 44.7 µM | GI50 (HCT-15 colon) > 100 µM | GI50 (HL-60(TB) leukemia) 65.3 µM | GI50 (HOP-62 NSCLC) 16.3 µM | GI50 (HOP-92 NSCLC) 12.5 µM | GI50 (HT29 colon) > 100 µM | GI50 (IGROV1 ovarian) > 100 µM | GI50 (K-562 leukemia) > 100 µM | GI50 (KM12 colon) > 100 µM | GI50 (KM20L2 colon) > 100 µM | GI50 (LOX IMVI melanoma) > 100 µM | GI50 (LXFL 529 NSCLC) > 100 µM | GI50 (M14 melanoma) > 100 µM | GI50 (M19-MEL melanoma) > 100 µM | GI50 (MALME-3M melanoma) > 100 µM | GI50 (MOLT-4 leukemia) > 100 µM | GI50 (NCI-H226 lung) > 100 µM | GI50 (NCI-H23 lung) 28.9 µM | GI50 (NCI-H460 lung) > 100 µM | GI50 (NCI-H522 lung) 21.5 µM | GI50 (OVCAR-3 ovarian) > 100 µM | GI50 (OVCAR-4 ovarian) > 100 µM | GI50 (OVCAR-5 ovarian) > 100 µM | GI50 (OVCAR-8 ovarian) > 100 µM | GI50 (RPMI-8226 leukemia) > 100 µM | GI50 (RXF 393 renal) 3.1 µM | GI50 (SF-268 CNS) 22.9 µM | GI50 (SF-295 CNS) 71.9 µM | GI50 (SF-539 CNS) 6.03 µM | GI50 (SK-MEL-2 melanoma) 37.7 µM | GI50 (SK-MEL-28 melanoma) > 100 µM | GI50 (SK-MEL-5 melanoma) > 100 µM | GI50 (SK-OV-3 ovarian) 14.1 µM | GI50 (SN12C renal) > 100 µM | GI50 (SNB-19 CNS) 8.51 µM | GI50 (SNB-75 CNS) 3.64 µM | GI50 (SNB-78 CNS) 18.1 µM | GI50 (SR leukemia) > 100 µM | GI50 (SW-620 colon) > 100 µM | GI50 (TK-10 renal) 21.6 µM | GI50 (U251 CNS) 9.75 µM | GI50 (UACC-257 melanoma) > 100 µM | GI50 (UACC-62 melanoma) 61.6 µM | GI50 (UO-31 renal) > 100 µM
45.7 µM and 28.4 µM: TGI (SF-539 CNS)
17.2 µM and 20.2 µM: TGI (RXF 393 renal)
19.4 µM and 57.1 µM: TGI (U251 CNS)
29.2 µM and 31.9 µM: TGI (SNB-19 CNS)
34.7 µM and > 100 µM: TGI (SK-MEL-2 melanoma)
> 100 µM: TGI (CCRF-CEM leukemia) | TGI (DLD-1 colon) | TGI (DMS 114 small cell lung) | TGI (DMS 273 small cell lung) | TGI (HCC-2998 colon) | TGI (HCT-15 colon) | TGI (HOP-18 NSCLC) | TGI (HT29 colon) | TGI (K-562 leukemia) | TGI (KM20L2 colon) | TGI (M19-MEL melanoma) | TGI (MOLT-4 leukemia) | TGI (NCI-H226 lung) | TGI (OVCAR-5 ovarian) | TGI (RPMI-8226 leukemia) | TGI (SK-MEL-28 melanoma) | TGI (SN12C renal) | TGI (SR leukemia) | TGI (SW-620 colon) | TGI (UACC-257 melanoma) | TGI (UO-31 renal)
75 µM: TGI (A498 renal)
18.3 µM and 45.8 µM: TGI (HOP-92 NSCLC)
